The source of these data is patent publication US20250049798A1, “WEE1 PROTEIN KINASE DEGRADATION AGENT AND USE THEREOF” (HANGZHOU GLUBIO PHARMACEUTICAL CO. LTD., priority 2021, published 2025).

In the assay the target is HiBiT tagged Wee1 (Homo sapiens, UniProt P30291). Kind of assay: Wee1 protein degradation assay (HiBiT assay). In kind it is cell-based. As to conditions: engineered HT-1080 cells, 20 hours; for Dmax: maximum percentage of Wee1 degradation, read-out: HiBiT Wee1: Dmax. (HiBiT is a short tag that completes a luciferase, so light tracks the accessible tagged protein.)
Chain of HiBiT tagged Wee1 (P30291 whole entry): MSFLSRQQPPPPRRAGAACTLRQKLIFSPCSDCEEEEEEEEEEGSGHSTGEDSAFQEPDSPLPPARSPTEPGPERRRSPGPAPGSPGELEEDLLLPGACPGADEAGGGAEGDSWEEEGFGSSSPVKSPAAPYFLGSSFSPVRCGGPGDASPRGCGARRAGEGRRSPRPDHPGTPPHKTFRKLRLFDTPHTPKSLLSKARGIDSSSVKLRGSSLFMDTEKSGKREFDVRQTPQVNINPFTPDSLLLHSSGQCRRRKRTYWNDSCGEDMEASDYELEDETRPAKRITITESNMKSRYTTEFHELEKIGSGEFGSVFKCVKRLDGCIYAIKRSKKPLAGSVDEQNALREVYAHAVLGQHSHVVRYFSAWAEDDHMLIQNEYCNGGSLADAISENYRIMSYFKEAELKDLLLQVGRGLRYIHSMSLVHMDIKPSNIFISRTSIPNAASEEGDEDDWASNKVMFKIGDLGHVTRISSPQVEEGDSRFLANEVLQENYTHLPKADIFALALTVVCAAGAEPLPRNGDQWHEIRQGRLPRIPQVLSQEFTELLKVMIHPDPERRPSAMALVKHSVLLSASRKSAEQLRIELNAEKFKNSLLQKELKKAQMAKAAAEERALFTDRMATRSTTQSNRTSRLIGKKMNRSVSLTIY

On to `C=CCn1c(=O)c2cnc(Nc3ccc(N4CCN(CC5CCN(c6cccc7c(N8CCC(=O)NC8=O)nn(C)c67)CC5)CC4)cc3)nc2n1-c1ccc2c(n1)[C@@](O)(CC)CC2` [Compound 124], for which the DC50 was below 100 nM and the Dmax lay in the range of 50 to 75%.
On the same counts, the results for `C=CCn1c(=O)c2cnc(Nc3ccc(N4CCC(CN5CCN(c6ccc7c(N8CCC(=O)NC8=O)nn(C)c7c6)CC5)CC4)cc3)nc2n1-c1ccc2c(n1)[C@@](C)(O)CC2` [Compound 126] are below 100 nM and 50 to 75%.
On the same counts, the results for `C=CCn1c(=O)c2cnc(Nc3ccc(N4CCC(CN5CCN(c6ccc7c(N8CCC(=O)NC8=O)nn(C)c7c6)CC5)CC4)cc3)nc2n1-c1ccc2c(n1)[C@](C)(O)CC2` [Compound 127] are below 100 nM and above 75%.
For `C=CCn1c(=O)c2cnc(Nc3ccc(N4CCN(CC5CCN(c6ccc(NC7CCC(=O)NC7=O)cc6F)CC5)CC4)c(C)c3)nc2n1-c1ccc2c(n1)[C@@](O)(CC)CC2` (some centres unmarked) [Compound 128], the DC50 was below 100 nM and the Dmax was above 75%.
Taken in the same sequence, the figures for `C=CCn1c(=O)c2cnc(Nc3ccc(N4CCN(CC5CCN(c6ccc(NC7CCC(=O)NC7=O)cc6F)CC5)CC4)c(C)c3)nc2n1-c1ccc2c(n1)[C@](C)(O)CC2` (some centres unmarked) [Compound 130] were below 100 nM and above 75%.
For `C=CCn1c(=O)c2cnc(Nc3ccc(N4CCN(CC5CCN(c6ccc(NC7CCC(=O)NC7=O)cc6F)CC5)CC4)c(C)c3)nc2n1-c1ccc2c(n1)[C@@](C)(O)CC2` (some centres unmarked) [Compound 131], the DC50 was below 100 nM and the Dmax is above 75%.
`C=CCn1c(=O)c2cnc(Nc3ccc(N4CCC(CN5CCN(c6ccc(NC7CCC(=O)NC7=O)cc6F)CC5)CC4)c(C)c3)nc2n1-c1ccc2c(n1)[C@](C)(O)CC2` (some centres unmarked) [Compound 132]: the DC50 is below 100 nM and the Dmax was above 75%.
As for `C=CCn1c(=O)c2cnc(Nc3ccc(N4CCC(CN5CCN(c6ccc(NC7CCC(=O)NC7=O)cc6F)CC5)CC4)c(C)c3)nc2n1-c1ccc2c(n1)[C@@](C)(O)CC2` (some centres unmarked) [Compound 133], the DC50 was below 100 nM and the Dmax was above 75%.
On the same counts, the results for `C=CCn1c(=O)c2cnc(Nc3ccc(N4CCC(CN5CCN(c6ccc(NC7CCC(=O)NC7=O)cc6F)CC5)CC4)c(C)c3)nc2n1-c1ccc2c(n1)[C@@](O)(CC)CC2` (some centres unmarked) [Compound 134] are below 100 nM and above 75%.
Taken in the same sequence, the figures for `C=CCn1c(=O)c2cnc(Nc3ccc(N4CCC(CN5CCN(c6ccc7c(N8CCC(=O)NC8=O)nn(C)c7c6)CC5)CC4)c(C)c3)nc2n1-c1ccc2c(n1)[C@@](O)(CC)CC2` [Compound 135] were below 100 nM and above 75%.
With `C=CCn1c(=O)c2cnc(Nc3ccc(N4CCN(CC5CCN(c6ccc(NC7CCC(=O)NC7=O)cn6)CC5)CC4)cc3)nc2n1-c1ccc2c(n1)[C@@](O)(CC)CC2` (some centres unmarked) [Compound 136], the DC50 is below 100 nM and the Dmax is above 75%.
On to `C=CCn1c(=O)c2cnc(Nc3ccc(N4CCN(CC5CCN(c6ccc7c(N8CCC(=O)NC8=O)nn(C)c7c6)CC5)CC4)c(C)c3)nc2n1-c1ccc2c(n1)[C@@](C)(O)CC2` [Compound 138], for which the DC50 is below 100 nM and the Dmax fell in the range of 50 to 75%.
As to `C=CCn1c(=O)c2cnc(Nc3ccc(N4CCN(C[C@@H]5CCN(c6ccc(NC7CCC(=O)NC7=O)cc6F)C5)CC4)cc3)nc2n1-c1cccc(C(C)(C)O)n1` (some centres unmarked) [Compound 139], the DC50 is below 100 nM and the Dmax is above 75%.
On the same counts, the results for `C=CCn1c(=O)c2cnc(Nc3ccc(N4CCN(CC5CCN(c6cccc7c(N8CCC(=O)NC8=O)nn(C)c67)CC5)CC4)cc3)nc2n1-c1cccc(C(C)(C)O)n1` [Compound 143] are below 100 nM and 50 to 75%.
As for `C=CCn1c(=O)c2cnc(Nc3ccc(N4CCC(CN5CCC(c6cccc(NC7CCC(=O)NC7=O)c6)CC5)CC4)cc3)nc2n1-c1cccc(C(C)(C)O)n1` (centres unmarked) [Compound 145], the DC50 lay within 100 to 1000 nM and the Dmax is 50 to 75%.
Regarding `C=CCn1c(=O)c2cnc(Nc3ccc(C4CCN(CC5CCN(c6ccc(N7CCC(=O)NC7=O)cc6)CC5)CC4)cc3)nc2n1-c1cccc(C(C)(C)O)n1` [Compound 146], the DC50 is above 1000 nM and the Dmax is below 50%.
In the case of `C=CCn1c(=O)c2cnc(Nc3ccc(N4CCC(CN5CCN(c6ccc(NC7CCC(=O)NC7=O)cc6Cl)CC5)CC4)cc3)nc2n1-c1cccc(C(C)(C)O)n1` (centres unmarked) [Compound 147], the DC50 was below 100 nM and the Dmax is above 75%.
On the same counts, the results for `C=CCn1c(=O)c2cnc(Nc3ccc(C4CCN(C5CN(c6ccc(NC7CCC(=O)NC7=O)cc6F)C5)CC4)cc3)nc2n1-c1cccc(C(C)(C)O)n1` (centres unmarked) [Compound 148] are below 100 nM and above 75%.
On to `C=CCn1c(=O)c2cnc(Nc3ccc(N4CCC(CN5CCN(c6ccc(OC7CCC(=O)NC7=O)cc6F)CC5)CC4)cc3)nc2n1-c1cccc(C(C)(C)O)n1` (centres unmarked) [Compound 149], for which the DC50 was below 100 nM and the Dmax is above 75%.
On to `C=CCn1c(=O)c2cnc(Nc3ccc(N4CCC(N5CC6(CN(c7ccc(NC8CCC(=O)NC8=O)cc7F)C6)C5)CC4)cc3)nc2n1-c1ccc2c(n1)[C@@](O)(CC)CC2` (some centres unmarked) [Compound 154], for which the DC50 is below 100 nM and the Dmax is above 75%.
As for `C=CCn1c(=O)c2cnc(Nc3ccc(N4CCN(C5CCN(c6ccc(NC7CCC(=O)NC7=O)cc6F)CC5)CC4)cc3)nc2n1-c1ccc2c(n1)[C@@](O)(CC)CC2` (some centres unmarked) [Compound 155], the DC50 is below 100 nM and the Dmax was above 75%.
Taken in the same sequence, the figures for `C=CCn1c(=O)c2cnc(Nc3ccc(N4CCN(C(=O)CC5(O)CCN(c6ccc(NC7CCC(=O)NC7=O)cc6F)CC5)CC4)cc3)nc2n1-c1ccc2c(n1)[C@@](O)(CC)CC2` (some centres unmarked) [Compound 159] were below 100 nM and 50 to 75%.
On the same counts, the results for `C=CCn1c(=O)c2cnc(Nc3ccc(N4CCC(CN5CCC(c6ccc7c(N8CCC(=O)NC8=O)nn(C)c7c6)C(F)(F)C5)CC4)cc3)nc2n1-c1ccc2c(n1)[C@@](O)(CC)CC2` (some centres unmarked) [Compound 160] are below 100 nM and 50 to 75%.
Taken in the same sequence, the figures for `C=CCn1c(=O)c2cnc(Nc3ccc(N4CCN(C5CC6(CCN(c7ccc(NC8CCC(=O)NC8=O)cc7F)CC6)C5)CC4)cc3)nc2n1-c1ccc2c(n1)[C@@](O)(CC)CC2` (some centres unmarked) [Compound 165] were below 100 nM and above 75%.
Regarding `C=CCn1c(=O)c2cnc(Nc3ccc(N4CCN(CC5CCN(c6ccc(NC7CCC(=O)NC7=O)cc6F)CC5)CC4)c(Cl)c3)nc2n1-c1ccc2c(n1)[C@@](O)(CC)CC2` (some centres unmarked) [Compound 167], the DC50 was below 100 nM and the Dmax is above 75%.
For `C=CCn1c(=O)c2cnc(Nc3ccc(N4CCN(C5CC6(C5)CN(c5ccc7c(N8CCC(=O)NC8=O)nn(C)c7c5)C6)CC4)cc3)nc2n1-c1ccc2c(n1)[C@@](O)(CC)CC2` [Compound 170], the DC50 is below 100 nM and the Dmax was above 75%.
On the same counts, the results for `C=CCn1c(=O)c2cnc(Nc3ccc(N4CCC5(CC4)CCN(C4CN(c6ccc(NC7CCC(=O)NC7=O)cc6F)C4)CC5)cc3)nc2n1-c1ccc2c(n1)[C@@](O)(CC)CC2` (some centres unmarked) [Compound 171] are below 100 nM and above 75%.
On the same counts, the results for `C=CCn1c(=O)c2cnc(Nc3ccc(N4CC(N5CC6(CCN(c7ccc(NC8CCC(=O)NC8=O)cc7F)CC6)C5)C4)cc3)nc2n1-c1ccc2c(n1)[C@@](O)(CC)CC2` (some centres unmarked) [Compound 172] are below 100 nM and 50 to 75%.

As usually defined, the DC50 is the midpoint of the concentration-degradation curve. A lower DC50 goes with degradation at low concentration. As usually defined, the Dmax is the greatest extent of degradation seen.
